According to patent publication US4388237A, “6(1-Piperazinyl), piperidino and (1(homopiperazinyl)11-cyanomethylene morphanthridines” (BASF Aktiengesellschaft, priority 1979, dated 1983):
Entries after “also recorded” stand apart in the source; their conditions may differ. Where a name gives a salt, the structure may show the parent alone.

Legend:
Type in all cases: in vivo
[1] = test system: female NMRI mice; experiment: Analgesic effect (D'Amour and Smith tail-flick method); details: for Analgesic effect ED 100%: intraperitoneal, mice, dose lengthening tail-flick reaction time by 100%, 30 minutes after administration; for Analgesic effect R.A. (relative activity): relative to Clozapin (1.00); for Analgesic effect (in words): discussion of Table 1
Method: The analgesic effect is determined by means of the D'Amour and Smith (1941) tail-flick method. In this, the substances are administered intraperitoneally to groups of 10 female NMRI mice. The pain reaction is triggered 30 minutes after administration. The reaction time, until the tail is flicked out of the way after exposure to a focused light beam, is measured.

[2] = test system: female NMRI mice; experiment: Sedative effect (orientation hypermotility); details: for Sedative effect R.A. (relative activity): relative to Clozapin (1.00); for Sedative effect (in words): discussion of Table 1
Method: The substances are administered orally to groups of 4×3 or 8×3 female NMRI mice. The orientation hypermotility induced by a new environment is determined photoelectrically, 30 minutes after the administration of the substances, for a period of 30 minutes.

[3] = test system: female Sprague-Dawley rats; experiment: Apomorphine-antagonistic effect (jaw movements, mandibulogram); details: for Apomorphine antagonism R.A. (relative activity): relative to Clozapin (1.00)
Method: 4. Apomorphine-antagonistic effect
Jaw motions are triggered in groups of 4-6 female Sprague-Dawley rats by subcutaneous administration of 1.5 mg of apomorphine/kg, and are recorded by means of implanted electrodes (Kubacki mandibulogram, 1978) .

[4] = test system: female NMRI mice; experiment: Anti-cholinergic effect (protection against death from Physostigmin)
Method: 3. Anti-cholinergic effect
A lethal dose (0.825 mg/kg) of Physostigmin is administered subcutaneously to groups of 10 female NMRI mice. The test substances are administered orally 30 minutes before administering the Physostigmin.

| SMILES | Analgesic effect ED 100% [1] | Sedative effect R.A. (relative activity) [2] | Apomorphine antagonism R.A. (relative activity) [3] | Analgesic effect R.A. (relative activity) [1] | further results |
| --- | --- | --- | --- | --- | --- |
| Cc1ccc2c(c1)N=C(N1CCN(C)CC1)c1ccccc1C2=CC#N (mixture of isomers) [13a cis-trans M, cis,trans-3-Methyl-11-cyanomethylene-6-(4-methylpiperazin-1-yl)-morphanthridine] | 5.17 mg/kg | – | – | – | – |
| Cc1ccc2c(c1)C(=CC#N)c1ccccc1C(N1CCN(C)CC1)=N2 (mixture of isomers) [13b cis-trans M, cis,trans-2-Methyl-11-cyanomethylene-6-(4-methyl-piperazin-1-yl)-morphanthridine] | 10 mg/kg | – | – | – | – |
| CCN1CCN(C2=Nc3ccccc3C(=CC#N)c3ccccc32)CC1 (mixture of isomers) [31 cis-trans M, cis,trans-11-Cyanomethylene-6-(4-ethyl-piperazin-1-yl)-morphanthridine] | > 10 mg/kg | – | – | – | – |
| N#CC=C1c2ccccc2N=C(N2CCCNCC2)c2ccccc21 (mixture of isomers) [32 cis-trans M, cis,trans-11-Cyanomethylene-6-homopiperazin-1-yl-morphanthridine.HCl.H2 O] | 46.4 mg/kg | > 0.22 | < 0.08 | 0.04 | – |
| N#CC=C1c2ccccc2N=C(NCCN2CCCCC2)c2ccccc21 (mixture of isomers) [38 cis-trans M, cis,trans-11-Cyanomethylene-6-(2-piperidin-1-yl-ethylamino)-morphanthridine.1/2H2 O] | > 10 mg/kg | 2.94 | 0.17 | – | – |
| C[N+]1([O-])CCN(C2=Nc3ccccc3C(=CC#N)c3ccccc32)CC1 (mixture of isomers) [67 cis-trans M, cis,trans-11-Cyanomethylene-6-(4-methyl-4-oxypiperazin-1-yl)-morphanthridine.2H2 O] | > 46.4 mg/kg | 0.33 | 0.09 | < 0.04 | – |
| CN1CCN(C2=Nc3ccccc3/C(=C/C#N)c3ccccc32)CC1 [1 cis-isomer, cis-11-cyanomethylene-6-(4-methylpiperazin-1-yl)-morphanthridine] | 31.6 mg/kg | – | – | – | Anti-cholinergic effect (in words) ([4]; discussion of Table 1, Physostigmin antagonism): approximately comparable anti-cholinergic effect |
| CN1CCN(C2=Nc3ccccc3C(=CC#N)c3ccccc32)CC1 [1 cis-trans M, cis- and trans-11-Cyanomethylene-6-(4-methyl-piperazin-1-yl)-morphanthridine] | 46.4 mg/kg | – | – | – | Sedative effect (in words) ([2]; listed as Example 1 (cis-trans mixture)): relatively strong sedative effects; also recorded: more strongly sedative; Apomorphine-antagonistic effect (in words) ([3]; discussion of Table 1): somewhat weaker than that of Clozapin; Analgesic effect (in words) [1]: not analgesically active; ED50 ([4]; Mus musculus, read-out: Anti-cholinergic effect ED 50%, oral, 30 minutes before Physostigmin 0.825 mg/kg subcutaneous, mice, dose protecting 50% of the animals against death): 6.26 mg/kg |
| CN1CCN(C2=Nc3ccccc3/C(=C\C#N)c3ccccc32)CC1 [1 trans-isomer, trans-11-cyanomethylene-6-(4-methyl-piperazin-1-yl)-morphanthridine] | > 21.5 mg/kg | – | – | – | – |
| Cc1ccc2c(c1)N=C(N1CCN(C)CC1)c1ccccc1/C2=C\C#N [13a cis-isomer, cis-3-methyl-11-cyanomethylene-6-(4-methyl-piperazin-1-yl)-morphanthridine] | 0.74 mg/kg | – | – | – | Sedative effect (in words) [2]: responsible for the strong sedative and strong analgesic effects; Analgesic effect (in words) [1]: An analgesic effect is found; also recorded: responsible for the strong sedative and strong analgesic effects |
| Cc1ccc2c(c1)N=C(N1CCN(C)CC1)c1ccccc1/C2=C/C#N [13a trans-isomer, trans-3-methyl-11-cyanomethylene-6-(4-methylpiperazin-1-yl)-morphanthridine] | 68.1 mg/kg | – | – | – | – |
| CCN1CCN(C2=Nc3ccccc3/C(=C\C#N)c3ccccc32)CC1 [31 trans-isomer, trans-11-cyanomethylene-6-(4-ethyl-piperazin-1-yl)-morphanthridine] | > 46.4 mg/kg | – | – | – | – |
| C[N+]1([O-])CCN(C2=Nc3ccccc3/C(=C/C#N)c3ccccc32)CC1 [67 cis-isomer, cis-11-cyanomethylene-6-(4-methyl-4-oxy-piperazin-1-yl)-morphanthridine] | > 46.4 mg/kg | 0.26 | < 0.08 | < 0.04 | – |
| C[N+]1([O-])CCN(C2=Nc3ccccc3/C(=C\C#N)c3ccccc32)CC1 [67 trans-isomer, t rans-11-cyanomethylene-6-(4-methyl-4-oxy-piperazin-1-yl)-morphanthridine] | > 100 mg/kg | 0.04 | 0.32 | < 0.02 | – |
| CN1CCN(C2=Nc3cc(Cl)ccc3Nc3ccccc32)CC1 [Clozapin, reference compound] | 2.08 mg/kg | 1.00 | 1.00 | 1.00 | – |
| CN1CCN(C2=Nc3ccccc3Cc3ccccc32)CC1 [Perlapin, reference compound] | – | 2.31 | 0.37 | < 0.10 | – |
